Consider one substance from paper PMC10709007, “GPR162 is a beta cell CART receptor” (iScience, 2023).

Test [1] concerns GPR162. Nature of the test: Proximity ligation assay (PLA) CART-GPR162 in INS-1 832/13 cells. The test is classed as binding, rat. The protocol: (§1) INS-1 832/13 cells were seeded in 8-well tissue culture chambers (Sarstedt, Nümbrecht, Germany). 10^−7M rat CARTp55-102 (Phoenix Pharmaceuticals, Burlingame, CA) was added to fresh media and cells were incubated for 5 min in a humidified atmosphere (37°C, 5% CO2). Cells were rinsed quickly in ice-cold 1XPBS and then washed twice with ice-cold PBS. Cells were then fixed for 20 min in 4% paraformaldehyde, washed 2 × 10 min in 1XPBS and permeabilized for 15 min in PBS +0.25% Triton X-100. Proximity ligation assay (PLA) (DuoLink In situ Red Starter Kit Goat/Rabbit, Sigma Aldrich) was performed according to the instructions provided by the manufacturers. The following antibody combinations were used for the PLA: goat anti-GPR162 (sc-138323, dilution 1:500, Santa Cruz) with rabbit anti-CART (code 2059A, dilution 1:5000, kindly provided by Dr. Jes T. Clausen, Novo Nordisk, Måløv, Denmark), and goat anti-CART (code sc-18068, dilution 1:400, Santa Cruz) with rabbit anti-GPR162 (code PA5-33655, dilution 1:500, Thermo Scientific). Anti-rabbit GPR160 (code PA5-33650) was combined with anti-goat CART (code sc-18068 from Santa Cruz). Anti-rabbit GNA13 (PA5-100644) was combined with anti-goat GPR162 (sc-138323). Negative controls were omission of both antibodies and the combination of the CART antibody with an antibody toward a receptor with a known ligand. […]

Test [2] deals with GIP receptor. Nature of the test: Proximity ligation assay (PLA) CART-GIP receptor (specificity control). Particulars: control experiment, goat anti-CART with rabbit anti-GIP receptor. The test is classed as binding, rat. The protocol: as §1
The subject of test [3] is INS-1 832/13 cells. In words: Glucose-stimulated insulin secretion (GSIS) in INS-1 832/13. The test is classed as cell-based, rat. Particulars: 10^-7M CARTp55-102 24 h before GSIS, 16.7 mM glucose, 10 μM IBMX. The protocol:
GSIS was measured 72 h after Cartpt KD. INS-1 832/13 cells were washed twice and incubated for 2 h in 2.8 mM glucose HEPES-buffered saline solution (HBSS): 114 mM NaCl, 4.7 mM KCl, 1.2 mM KH2PO4, 1.16 mM MgSO4, 20 mM HEPES, 2.5 mM CaCl2, 25.5 mM NaHCO3, 0.2% BSA, pH 7.2, followed by 1-h stimulation in the same buffer containing 2.8 mM, 16.7 mM glucose, 16.7 mM glucose and 10 μM IBMX. In a separate experiment, control and Gpr162 KD cells were incubated with 10^−7M CARTp55-102 for 24 h before GSIS. Insulin concentrations in supernatant were determined using ELISA (Mercodia, Uppsala, Sweden) and were normalized to total protein content of each well (determined by Bio-Rad protein assay, BioRad).
Insulin from INS-1 832/13 cells and mouse islets were analyzed using ELISA (Mercodia).

Test [4] deals with INS-1 832/13 cells. In words: Actin staining (phalloidin) in INS-1 832/13 cells. The test is classed as cell-based, rat. Particulars: 10^-7M CARTp55-102, 24 h, n = 6. The protocol:
INS-1 832/13 cells (a rat insulinoma cell line of male origin) were cultured in RPMI 1640 medium (Sigma Aldrich, St. Louis, MO) containing 2 g/L D-glucose, supplemented with 10% FBS, 10 mM HEPES, 1 mM sodium pyruvate and 50 μM β-mercaptoethanol (Sigma Aldrich) in a humidified atmosphere (37°C, 5% CO2). For investigations of actin architecture, INS-1 832/13 cells were seeded in 8-well chamber slides (Sarstedt) and transfected as described below before being fixed, permeabilized and stained with phalloidin (Phalloidin-iFluor488, Abcam, Cambridge, UK) for 60 min. Nuclei were counter-stained with DAPI and F-actin was visualized using Phalloidin-iFluor488 (Abcam). Phalloidin staining was performed for 60 min at a dilution of 1:1000 (in PBS +0.25% Triton X-100). Phalloidin intensity was quantified using the ImageJ software.

For test [5], the system named is PC-12 cells. Conditions: RNA interference of Gpr160; cited from earlier work. The text has this:
(§2) When studying neuropathic pain, Yosten et al.[11] found GPR160 to be necessary for CARTp-mediated cell activation in cell culture. […] However, whether GPR160 is a receptor for CART in the b ...

Test [6] has as its system dorsal horn of the spinal cord. Particulars: intrathecal injections; cited from earlier work.
From the text: as §2

The subject of test [7] is rats. Particulars: cited from earlier work. The text has this:
However, much earlier, a fragment of the CART peptide was identified in extracts of sheep hypothalamus.[2] CART was later found to be expressed also in pancreatic islet cells and in nerve fibers innervating the islets.[3]^,[4]^,[5] […] Since then, multiple biological effects of CART have been established.[4]^,[7] Among them is the effect of CART on islet hormone secretion fr ... || When studying neuropathic pain, Yosten et al.[11] found GPR160 to be necessary for CARTp-mediated cell activation in cell culture. […] Information on GPR160 is scarce, but it has been reported to be a potential marker for prostate cancer,[24] where it is involved in apoptosis and cell-cycle arrest.[25] […] Recently, the notion of GPR160 being the ... || (+ 1 further places)

The test system of test [8] is AtT20. Particulars: exogenous CART; cited from earlier work. The text has this:
(§3) GPR162 was identified as the most CART-affected orphan receptor in INS-1 832/13 cells. […] By showing that CART binds to GPR162 and that biological effects of CART are reduced or ablated after Gpr162 KD, we propose that GPR162 acts as a CART receptor in beta cells. We also established expression of GPR162 in a majority of human and mouse beta cells. Moderate GPR162 immunoreactivity was evident across the cytoplasm and more intense immunoreact ...

For test [9], the system named is INS-1 832/13 cells. Conditions: cited from earlier work.
From the text: as §3

Entries after “also recorded” stand apart in the source; their conditions may differ. Where no end group is shown, it is not given here.

As to “CARTp55-102: Rat, mouse CARTp55-102 (Phoenix Pharmaceuticals, Cat#003-62); human form Cat#003-60; cocaine- and amphetamine-regulated transcript peptide (IPIYEKKYGQVPMCDAGEQCAVRKGARIGKLCDCPRGTSCNSFLLKCL; ends and bridges not checked; cysteine pairing not given here)”, the “CART-GPR162 interaction (PLA)” value in test [1] (10^-7M rat CARTp55-102, 5 min, 37°C, n = 8) was “confirmed an interaction between GPR162 and CART”. Further, the “Reduction of CART-GPR162 interaction (PLA) in Gpr162 siRNA cells” value in test [1] (Gpr162 siRNA vs control cells, 10^-7M CARTp55-102, n = 8, p < 0.005) stood at 90%. In addition, the “CART-GIP receptor interaction (PLA control)” value in test [2] was “no interaction was found between CART and the GIP receptor”. In addition, the “Insulinotropic effect of CARTp55-102 on glucose and IBMX-stimulated secretion in Gpr162 KD cells” value in [3] (n = 6) is reported as “abolished”; in test [3] (n = 6, listed as CART), “near-complete abolishment”. Besides, the “Effect of CARTp on actin staining in Gpr162 KD cells” value is on record as “near-complete abolishment” in [4] (listed as CART) and “without effect; also recorded: lost in Gpr162 KD cells” in test [4] (listed as CARTp). The “Increase in actin staining” value in test [4] (control cells, phalloidin) is on record as “approximately 2 -fold”. Moreover, the “ERK phosphorylation after Gpr160 RNA interference” value in test [5] is “RNA interference of Gpr160 prevented CART from activating c-FOS expression and phosphorylation of ERK in vitro in KATO III cells and PC-12 cells, respectively”. Besides, the “Phosphorylation of ERK and CREB” value in [6] was “induced phosphorylation of ERK and CREB”. Also, in test [7] (AAV-mediated knockdown of Gpr160 in dorsal vagal complex, rat), the “Anorexigenic effects of CART on meal microstructure after Gpr160 knockdown” value was “partially attenuates the anorexigenic effects of CART on meal microstructure”. Further, the Anorexigenic effect result in test [7] was “anorexigenic effects”. Besides, the “Activation of AtT20” value in [8] was “capable of activating AtT20”. The cAMP result in test [9] is listed as “increase cAMP”.
